From patent publication US12421251B2, “Cystic fibrosis transmembrane conductance regulator modulating agents” (VERTEX PHARMACEUTICALS INCORPORATED, priority 2019, dated 2025)

Target: CFTR (Homo sapiens, UniProt P13569)
Test: Membrane potential dye assay (FLIPR Tetra) of CFTR-mediated chloride transport in enteroid cells
Type: cell-based
Settings: human intestinal epithelial enteroid cells, 18-24 h incubation with test compound, acute 10 μM forskolin and 300 nM Compound III; for EC50: CFTR-mediated chloride transport; for Max. Activity: chloride transport as % of triple combination positive control (% Activity)
Method: Base medium (ADF+++) consisted of Advanced DMEM/Ham's F12, 2 mM Glutamax, 10 mM HEPES, 1 μg/ml penicillin/streptomycin.
Intestinal enteroid maintenance medium (IEMM) consisted of ADF+++, 1×B27 supplement, 1×N2 supplement, 1.25 mM N-acetyl cysteine, 10 mM Nicotinamide, 50 ng/mL hEGF, 10 nM Gastrin, 1 μg/mL hR-spondin-1, 100 ng/mL hNoggin, TGF-b type 1 inhibitor A-83-01, 100 μg/mL Primocin, 10 μM P38 MAPK inhibitor SB202190.
Bath 1 Buffer consisted of 1 mM MgCl2, 160 mM NaCl, 4.5 mM KCl, 10 mM HEPES, 10 mM Glucose, 2 mM CaCl2.
Chloride Free Buffer consisted of 1 mM Magnesium Gluconate, 2 mM Calcium Gluconate, 4.5 mM Potassium Gluconate, 160 mM Sodium Gluconate, 10 mM HEPES, 10 mM Glucose.
Bath1 Dye Solution consisted of Bath 1 Buffer, 0.04% Pluronic F127, 20 μM Methyl Oxonol, 30 μM CaCCinh-A01, 30 μM Chicago Sky Blue.
Chloride Free Dye Solution consisted of Chloride Free Buffer, 0.04% Pluronic F127, 20 μM Methyl Oxonol, 30 μM CaCCinh-A01, 30 μM Chicago Sky Blue.
Chloride Free Dye Stimulation Solution consisted of Chloride Free Dye Solution, 10 μM forskolin, 100 μM IBMX, and 300 nM Compound III.
Human intestinal epithelial enteroid cells were obtained from the Hubrecht Institute for Developmental Biology and Stem Cell Research, Utrecht, The Netherlands and expanded in T-Flasks as previously described (Dekkers J F, Wiegerinck C L, de Jonge H R, Bronsveld I, Janssens H M, de Winter-de Groot K M, Brandsma A M, de Jong N W M, Bijvelds M J C, Scholte B J, Nieuwenhuis E E S, van den Brink S, Clevers H, van der Ent C K, Middendorp S and M Beekman J M. A functional CFTR assay using primary cystic fibrosis intestinal organoids. Nat. Med. 2013 July; 19(7):939-45.
Enteroid Cell Harvesting and Seeding
Cells were recovered in cell recovery solution, collected by centrifugation at 650 rpm for 5 min at 4° C., resuspended in TryPLE and incubated for 5 min at 37° C. Cells were then collected by centrifugation at 650 rpm for 5 min at 4° C. and resuspended in IEMM containing 10 μM ROCK inhibitor (RI). The cell suspension was passed through a 40 μm cell strainer and resuspended at 1×10^6 cells/mL in IEMM containing 10 μM RI. Cells were seeded at 5000 cells/well into multi-well plates and incubated for overnight at 37° C., 95% humidity and 5% CO2 prior to assay.
Membrane Potential Dye Assay
Enteroid cells were incubated with test compound in IEMM for 18-24 h at 37° C., 95% humidity and 5% CO2. Following compound incubations, a membrane potential dye assay was employed using a FLIPR Tetra to directly measure the potency and efficacy of the test compound on CFTR-mediated chloride transport following acute addition of 10 μM forskolin and 300 nM N-[2,4-bis(1,1-dimethylethyl)-5-hydroxyphenyl]-1,4-dihydro-4-oxoquinoline-3-carboxamide. Briefly, cells were washed 5 times in Bath 1 Buffer. Bath 1 Dye Solution was added and the cells were incubated for 25 min at ambient temperature. Following dye incubation, cells were washed 3 times in Chloride Free Dye Solution. Chloride transport was initiated by addition of Chloride Free Dye Stimulation Solution and the fluorescence signal was read for 15 min. The CFTR-mediated chloride transport for each condition was determined from the AUC of the fluorescence response to acute forskolin and 300 nM N-[2,4-bis(1,1-dimethylethyl)-5-hydroxyphenyl]-1,4-dihydro-4-oxoquinoline-3-carboxamide stimulation. Chloride transport was then expressed as a percentage of the chloride transport following treatment with 1 μM (14S)-8-[3-(2-{Dispiro[2.0.2.1]heptan-7-yl}ethoxy)-1H-pyrazol-1-yl]-12,12-dimethyl-2λ^6-thia-3,9,11,18,23-pentaazatetracyclo[17.3.1.111,14.05,10]-tetracosa-1(22),5,7,9,19(23),20-hexaene-2,2,4-trione, 3 μM ((R)-1-(2,2-difluorobenzo[d][1,3]dioxol-5-yl)-N-(1-(2,3-dihydroxypropyl)-6-fluoro-2-(1-hydroxy-2-methylpropan-2-yl)-1H-indol-5-yl)cyclopropanecarboxamide and 300 nM acute N-[2,4-bis(1,1-dimethylethyl)-5-hydroxyphenyl]-1,4-dihydro-4-oxoquinoline-3-carboxamide triple combination positive control (% Activity). […]

CFTR, sequence (P13569 with tags, fused parts or gaps DEL508-508): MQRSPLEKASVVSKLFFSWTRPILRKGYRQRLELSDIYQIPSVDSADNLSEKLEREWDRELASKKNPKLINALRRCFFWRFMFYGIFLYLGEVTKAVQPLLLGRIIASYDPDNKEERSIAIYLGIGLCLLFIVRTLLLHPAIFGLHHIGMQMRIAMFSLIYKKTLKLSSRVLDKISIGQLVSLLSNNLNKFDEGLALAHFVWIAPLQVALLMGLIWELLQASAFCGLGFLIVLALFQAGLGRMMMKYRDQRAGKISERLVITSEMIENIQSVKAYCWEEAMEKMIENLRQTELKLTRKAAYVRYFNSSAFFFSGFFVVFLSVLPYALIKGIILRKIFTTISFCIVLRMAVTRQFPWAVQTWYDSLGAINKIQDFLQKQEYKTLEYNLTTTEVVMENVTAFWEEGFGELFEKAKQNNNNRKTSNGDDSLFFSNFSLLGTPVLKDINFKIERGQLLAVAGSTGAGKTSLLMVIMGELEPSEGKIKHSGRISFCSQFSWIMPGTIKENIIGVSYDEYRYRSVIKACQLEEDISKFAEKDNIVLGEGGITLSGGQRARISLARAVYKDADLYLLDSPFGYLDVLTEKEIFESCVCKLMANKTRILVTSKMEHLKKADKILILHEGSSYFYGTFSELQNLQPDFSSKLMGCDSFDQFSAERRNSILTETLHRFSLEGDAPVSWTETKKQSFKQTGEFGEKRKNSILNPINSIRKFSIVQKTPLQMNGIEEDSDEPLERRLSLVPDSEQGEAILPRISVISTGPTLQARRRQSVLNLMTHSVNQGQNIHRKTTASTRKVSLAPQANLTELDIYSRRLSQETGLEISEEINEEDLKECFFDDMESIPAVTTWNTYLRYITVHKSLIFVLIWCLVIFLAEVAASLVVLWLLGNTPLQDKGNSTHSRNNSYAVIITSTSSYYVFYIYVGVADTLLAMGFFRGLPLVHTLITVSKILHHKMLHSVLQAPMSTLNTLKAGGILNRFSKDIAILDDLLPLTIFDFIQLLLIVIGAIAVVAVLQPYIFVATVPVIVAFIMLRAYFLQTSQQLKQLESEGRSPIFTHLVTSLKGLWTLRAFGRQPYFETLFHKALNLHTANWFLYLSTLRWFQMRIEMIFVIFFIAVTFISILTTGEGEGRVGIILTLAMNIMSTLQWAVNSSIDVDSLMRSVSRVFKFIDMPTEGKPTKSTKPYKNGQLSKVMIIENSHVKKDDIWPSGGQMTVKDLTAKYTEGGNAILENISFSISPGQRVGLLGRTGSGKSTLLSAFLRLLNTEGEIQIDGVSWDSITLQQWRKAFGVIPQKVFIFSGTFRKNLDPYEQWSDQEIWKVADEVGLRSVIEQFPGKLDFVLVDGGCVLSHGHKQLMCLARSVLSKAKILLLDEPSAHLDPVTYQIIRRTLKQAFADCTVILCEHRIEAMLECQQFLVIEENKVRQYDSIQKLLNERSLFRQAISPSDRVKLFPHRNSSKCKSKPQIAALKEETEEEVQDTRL

Row | EC50 [nM] | Max. Activity | SMILES
1 | < 1000 | +++ (+++ is >60%) | [2H]C([2H])([2H])c1cccc(C([2H])([2H])[2H])c1-c1cc2nc(n1)NS(=O)(=O)c1cccc(c1)C(=O)N(C1CC3(CC3)C1)[C@H](CC(C)C)CO2 [Compound Id, (11R)-6-[2,6-di(trideutero)methylphenyl]-11-(2-methylpropyl)-12-{spiro[2.3]hexan-5-yl}-9-oxa-2λ^6-thia-3,5,12,19-tetraazatricyclo[12.3.1.14,8]nonadeca-1(17),4(19),5,7,14(18),15-hexaene-2,2,13-trione]
2 | < 1000 | +++ (+++ is >60%) | [2H]C1(N2C(=O)c3cccc(c3)S(=O)(=O)Nc3nc(cc(-c4c(C)cccc4C)n3)OC[C@H]2CC(C)C)CC2(CC2)C1 [Compound Ic, (11R)-12-(5-Deuteriospiro[2.3]hexan-5-yl)-6-(2,6-dimethylphenyl)-11-isobutyl-2,2-dioxo-9-oxa-2-thia-3,5,12,19-tetrazatricyclo[12.3.1.14,8]nonadeca-1(18),4,6,8(19),14,16-hexaen-13-one]

Second part, the compound before the results:

Row | SMILES | EC50 [nM] | Max. Activity
3 | [2H]C1([2H])C([2H])([2H])C12CC(N1C(=O)c3cccc(c3)S(=O)(=O)Nc3nc(cc(-c4c(C)cccc4C)n3)OC[C@H]1CC(C)C)C2 [Compound Ia, (11R)-6-(2,6-Dimethylphenyl)-11-(2-methylpropyl)-12-[(1,1,2,2-tetradeutero)spiro[2.3]hexan-5-yl]-9-oxa-2λ^6-thia-3,5,12,19-tetraazatricyclo[12.3.1.14,8]nonadeca-1(17),4(19),5,7,14(18),15-hexaene-2,2,13-trione] | < 1000 | +++ (+++ is >60%)
4 | [2H]C1([2H])C2(CC2)C([2H])([2H])C1([2H])N1C(=O)c2cccc(c2)S(=O)(=O)Nc2nc(cc(-c3c(C)cccc3C)n2)OC[C@H]1CC(C)C [Compound Ib, (11R)-6-(2,6-Dimethylphenyl)-11-isobutyl-2,2-dioxo-12-(4,4,5,6,6-pentadeuteriospiro[2.3]hexan-5-yl)-9-oxa-2-thia-3,5,12,19-tetrazatricyclo[12.3.1.14,8]nonadeca-1(18),4,6,8(19),14,16-hexaen-13-one] | < 1000 | +++ (+++ is >60%)
5 | Cc1cccc(C)c1-c1cc2nc(n1)NS(=O)(=O)c1cccc(c1)C(=O)N(C1CC3(CC3)C1)[C@H](CC(C)C)CO2 [Compound I, (11R)-6-(2,6-dimethylphenyl)-11-(2-methylpropyl)-12-{spiro[2.3]hexan-5-yl}-9-oxa-2λ^6-thia-3,5,12,19-tetraazatricyclo[12.3.1.14,8]nonadeca-1(17),4(19),5,7,14(18),15-hexaene-2,2,13-trione] | < 1000 | +++ (+++ is >60%)
